According to PubChem BioAssay (NCI):
Several values for one entry are separate records, joined by “and”; a condition that tells them apart may be missing. Identical values can stand only once.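 Dose response: 5 concentrations. Exposure: 48 h. Format: 96-well plates. Endpoint: linear interpolation; highest concentration if not reached. At the GI50, growth is halved. Definition used: TGI = concentration required for complete inhibition of growth.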

Columns and labels:
Assay in all cases: DTP human tumour cell line panel, 48 h
[1] = test system: UO-31 renal
[2] = test system: RPMI-8226 leukemia
[3] = test system: SK-MEL-28 melanoma
[4] = test system: HOP-62 NSCLC
[5] = test system: 786-0 renal
[6] = test system: SK-MEL-5 melanoma
[7] = test system: HT29 colon
[8] = test system: CCRF-CEM leukemia
[9] = test system: SR leukemia

Row | Structure (SMILES) | TGI [1] [µM] | TGI [2] [µM] | TGI [3] [µM] | TGI [4] [µM] | TGI [5] [µM] | TGI [6] [µM] | TGI [7] [µM] | TGI [8] [µM] | TGI [9] [µM] | GI50 [7] | GI50 [1] | GI50 [2] [µM] | GI50 [3] [µM] | GI50 [5] [µM] | GI50 [6] | GI50 [8] [µM]
1 | CC(C)C1N2CCCCC2[C@@H]2c3[nH]c4ccccc4c3CCN12 (some centres not stated) | > 100 | > 100 | > 100 | > 100 | > 100 | > 100 | > 100 | > 100 |  |  |  |  |  |  |  | 
2 | CCOCc1cc(=O)c2c(OC)cc3c(c2o1)CCC(C)(C)O3 | > 100 |  | > 100 | > 100 | > 100 | > 100 | > 100 | > 100 | > 100 |  |  |  |  |  |  | 
3 | c1ccc(N/N=C2\NN=C(c3ccccc3)CS2)cc1 | 32.8 |  | 36.6 | > 100 | 33.6 |  | 24 | 54.9 | > 100 |  |  |  |  |  |  | 
4 | Cc1ccc(NC(=O)OCC(COc2ccc(Cl)cc2Cl)OC(=O)Nc2ccc(C)cc2)cc1 (configuration not stated) | > 100 | > 100 | > 100 | > 100 | > 100 |  | > 100 |  |  |  |  |  |  |  |  | 
5 | CCOP1(=O)C=C(C)C(=C(Cl)Cl)C(C)=C1 (configuration not stated) | 52.9 | 28.4 | > 100 | 40.6 | > 100 |  | 84.1 | 68.6 |  | 6.6 µM |  |  |  |  |  | 
6 | C1C[OH+]CC[OH+]CCNCC[OH+]CC[OH+]CCN1.Cl.[Cl-].[Pt+4] | > 100 | > 100 | > 100 |  | > 100 | > 100 | > 100 | > 100 |  | > 100 µM | > 100 µM | > 100 | > 100 | > 100 | > 100 µM | > 100
7 | CCN(CC)CCNc1ccc2nc(C)n3c4ccc(O)cc4c(=O)c1c23 | 12.1 | 6.18 | 11.3 | 18.8 | 10.4 | 15.6 | 1.57 |  | 1.32 |  |  |  |  |  |  | 
8 | COc1ccc2nc(NC(=O)C(=O)NNC(=O)c3ccncc3)sc2c1 | > 100 |  | > 100 | > 100 | > 100 | > 100 | > 100 | > 100 |  |  |  |  |  |  |  | 
9 | c1ccc2c(NCCCCCCNc3cccc4ccccc34)cccc2c1 | > 100 | > 100 | > 100 | > 100 | > 100 | > 100 | > 100 | > 100 |  |  |  |  |  |  |  | 
10 | C=C(CCCO)[C@@H]1CC[C@@](C)(O)[C@H]1C | > 100 | > 100 | > 100 |  | > 100 | > 100 | > 100 |  | > 100 |  |  |  |  |  |  | 
11 | CCOC1CC2OC(=O)C1C=C2C(=O)OC (configuration not stated) | > 100 | 53.9 | 62.8 | > 100 | 75.9 | > 100 | > 100 | 56.6 |  |  |  |  |  |  |  | 
12 | CSCCC(C(=O)O)N(CC1(O)OCC(O)C(O)C1O)N=O (configuration not stated) | > 100 | > 100 | > 100 | > 100 | > 100 | > 100 | > 100 | > 100 |  |  |  |  |  |  |  | 
13 | CCOC(=O)C(C(O)c1ccc([N+](=O)[O-])cc1)P(=O)(OCC)OCC (configuration not stated) |  | > 100 | > 100 | > 100 | > 100 | > 100 | > 100 | > 100 |  |  |  |  |  |  |  | 
14 | CC1C2CC=CC(=O)[C@@]2(C)CCC12OCCO2 (some centres not stated) | > 100 |  | > 100 | > 100 | > 100 | 65.4 | > 100 | > 100 | > 100 |  |  |  |  |  |  | 
15 | C/C(=N\NC(=O)CC(=O)N(C(=O)c1ccc(Cl)cc1)c1ccc(C)cc1)c1ccccc1O | > 100 | > 100 | > 100 | > 100 | > 100 | > 100 | > 100 | > 100 |  |  |  |  |  |  |  | 
16 | CCOC(=O)CNc1nnnn1C1OC(CO)C(O)C1O (configuration not stated) | > 100 | > 100 |  | > 100 | > 100 | > 100 | > 100 | > 100 |  |  |  |  |  |  |  | 
17 | C=CCN(N=O)C(=O)NCCCCC(NC(C)=O)C(=O)NCc1ccccc1 (configuration not stated) | > 100 | > 100 | > 100 | > 100 | > 100 | > 100 | > 100 | > 100 |  |  |  |  |  |  |  | 
18 | O=c1cc(-c2ccccc2)[nH]c2cc(Cl)ccc12 | > 100 | 10.5 | > 100 | 13.3 | 12.1 | 19.6 | > 100 | 11.4 |  |  |  |  |  |  |  | 
19 | COc1cc(/C=C2/C(=O)N(C(=O)OCc3ccccc3)C(Cc3cc(OC)c(OC)c(C)c3OC)C(=O)N2Cc2ccccc2)c(OC)c(C)c1OC (configuration not stated) | > 100 | > 100 | > 100 | > 100 | > 100 | 65.9 | > 100 |  | > 100 |  |  |  |  |  |  | 
20 | COC(=O)C(=O)C(C(=O)C(=O)Nc1cc(C)ccc1C)c1nc2ccc(C(=O)c3ccccc3)cc2[nH]c1=O (configuration not stated) | > 100 | > 100 |  |  | > 100 | > 100 |  | > 100 | > 100 |  |  |  |  |  |  | 
21 | CCCCCCCCCCCCCB(O)O | > 100 |  | > 100 | > 100 | > 100 | > 100 | > 100 | > 100 |  | > 100 µM and 29.9 µM | > 100 µM and 27.5 µM |  |  |  | > 100 µM and 45.4 µM | 
